The source of these data is PMC9205682 (Biochimica et biophysica acta. Biomembranes, 2021).

This experiment deals with Mycobacterial membrane protein large 3 (Mmpl3) (Mycolicibacterium smegmatis, UniProt A0QP27). In words: MicroScale Thermophoresis. In kind it is binding. (In general: Microscale thermophoresis detects binding through changes in fluorescence in a small temperature gradient.)
Mycobacterial membrane protein large 3 (Mmpl3), sequence (A0QP27 whole entry): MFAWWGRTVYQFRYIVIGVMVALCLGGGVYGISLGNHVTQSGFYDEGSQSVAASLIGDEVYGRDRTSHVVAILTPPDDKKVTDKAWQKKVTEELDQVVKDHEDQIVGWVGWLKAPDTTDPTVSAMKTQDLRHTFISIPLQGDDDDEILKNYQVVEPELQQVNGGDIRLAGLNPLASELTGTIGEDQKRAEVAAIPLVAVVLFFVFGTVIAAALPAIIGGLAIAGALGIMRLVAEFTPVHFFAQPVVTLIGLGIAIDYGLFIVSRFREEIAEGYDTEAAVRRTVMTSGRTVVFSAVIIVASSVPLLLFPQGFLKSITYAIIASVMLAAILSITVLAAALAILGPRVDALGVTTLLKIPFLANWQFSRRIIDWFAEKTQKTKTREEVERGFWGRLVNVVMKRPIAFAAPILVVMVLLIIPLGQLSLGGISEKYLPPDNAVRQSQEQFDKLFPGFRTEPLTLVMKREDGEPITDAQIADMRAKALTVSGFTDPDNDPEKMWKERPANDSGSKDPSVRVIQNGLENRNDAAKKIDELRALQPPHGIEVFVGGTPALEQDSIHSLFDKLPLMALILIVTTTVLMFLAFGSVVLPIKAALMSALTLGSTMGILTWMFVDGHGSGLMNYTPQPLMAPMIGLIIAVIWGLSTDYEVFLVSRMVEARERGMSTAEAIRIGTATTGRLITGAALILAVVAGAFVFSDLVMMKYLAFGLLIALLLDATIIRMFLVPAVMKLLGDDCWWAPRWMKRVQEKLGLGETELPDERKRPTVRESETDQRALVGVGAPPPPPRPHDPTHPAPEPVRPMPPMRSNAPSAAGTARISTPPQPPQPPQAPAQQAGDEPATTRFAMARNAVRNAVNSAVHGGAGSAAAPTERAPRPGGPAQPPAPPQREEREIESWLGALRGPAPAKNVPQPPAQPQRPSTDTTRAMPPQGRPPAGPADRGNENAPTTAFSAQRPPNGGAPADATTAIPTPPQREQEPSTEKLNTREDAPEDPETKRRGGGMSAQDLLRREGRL

As for `CC(C)=CCC/C(C)=C/CNCCNC1C2CC3CC(C2)CC1C3` (stereo not shown) [SQ109], binding was characterised by a dissociation constant (Kd) of 1560 nM.

The term Kd denotes the concentration at which binding is half-saturated. A low value points to tighter binding.
